Measured values: US20230125667A1, “NOVEL TDZD ANALOGS AS AGENTS THAT DELAY, PREVENT, OR REVERSE AGE-ASSOCIATED DISEASES AND AS ANTI-CANCER AND ANTILEUKEMIC AGENTS” (United States Government as represented by the Department …, priority 2020, published 2023)
Where two headings read alike, the source gives them in different places.

What was measured:
[1] = tested on: MV4-11 cell line (myelomonocytic leukemia); conditions: MV4-11 cells, 24 h
RXF 393 = assay: NCI-60 growth inhibition: RXF 393 (Renal Cancer); format: cell-based, human; conditions: Homo sapiens
SK-MEL-28 = assay: NCI-60 growth inhibition: SK-MEL-28 (Melanoma); format: cell-based, human; conditions: Homo sapiens
SNB-19 = assay: NCI-60 growth inhibition: SNB-19 (CNS Cancer); format: cell-based, human; conditions: Homo sapiens
SF-268 = assay: NCI-60 growth inhibition: SF-268 (CNS Cancer); format: cell-based, human; conditions: Homo sapiens
RPMI-8226 = assay: NCI-60 growth inhibition: RPMI-8226 (Leukemia); format: cell-based, human; conditions: Homo sapiens
IGROV1 = assay: NCI-60 growth inhibition: IGROV1 (Ovarian Cancer); format: cell-based, human; conditions: Homo sapiens, IGROV-1
CCRF-CEM = assay: NCI-60 growth inhibition: CCRF-CEM (Leukemia); format: cell-based, human; conditions: Homo sapiens
MDA-MB-468 = assay: NCI-60 growth inhibition: MDA-MB-468 (Breast Cancer); format: cell-based, human; conditions: Homo sapiens; MDA-MB-468 (Breast Cancer); read-out: GI50
786-0 = assay: NCI-60 growth inhibition: 786-0 (Renal Cancer); format: cell-based, human; conditions: Homo sapiens
U251 = assay: NCI-60 growth inhibition: U251 (CNS Cancer); format: cell-based, human; conditions: Homo sapiens, U-251
SK-MEL-5 = assay: NCI-60 growth inhibition: SK-MEL-5 (Melanoma); format: cell-based, human; conditions: Homo sapiens
COLO 205 = assay: NCI-60 growth inhibition: COLO 205 (Colon Cancer); format: cell-based, human; conditions: Homo sapiens
LOX IMVI = assay: NCI-60 growth inhibition: LOX IMVI (Melanoma); format: cell-based, human; conditions: Homo sapiens
MOLT-4 = assay: NCI-60 growth inhibition: MOLT-4 (Leukemia); format: cell-based, human; conditions: Homo sapiens
MDA-MB-231/ATCC = assay: NCI-60 growth inhibition: MDA-MB-231/ATCC (Breast Cancer); format: cell-based, human; conditions: Homo sapiens
MCF7 = assay: NCI-60 growth inhibition: MCF7 (Breast Cancer); format: cell-based, human; conditions: Homo sapiens
OVCAR-5 = assay: NCI-60 growth inhibition: OVCAR-5 (Ovarian Cancer); format: cell-based, human; conditions: Homo sapiens
BT-549 = assay: NCI-60 growth inhibition: BT-549 (Breast Cancer); format: cell-based, human; conditions: Homo sapiens
PC-3 = assay: NCI-60 growth inhibition: PC-3 (Prostate Cancer); format: cell-based, human; conditions: Homo sapiens
SF-539 = assay: NCI-60 growth inhibition: SF-539 (CNS Cancer); format: cell-based, human; conditions: Homo sapiens
HS 578T = assay: NCI-60 growth inhibition: HS 578T (Breast Cancer); format: cell-based, human; conditions: Homo sapiens
DU-145 = assay: NCI-60 growth inhibition: DU-145 (Prostate Cancer); format: cell-based, human; conditions: Homo sapiens
MALME-3M = assay: NCI-60 growth inhibition: MALME-3M (Melanoma); format: cell-based, human; conditions: Homo sapiens
SN12C = assay: NCI-60 growth inhibition: SN12C (Renal Cancer); format: cell-based, human; conditions: Homo sapiens
UO-31 = assay: NCI-60 growth inhibition: UO-31 (Renal Cancer); format: cell-based, human; conditions: Homo sapiens
OVCAR-3 = assay: NCI-60 growth inhibition: OVCAR-3 (Ovarian Cancer); format: cell-based, human; conditions: Homo sapiens
UACC-62 = assay: NCI-60 growth inhibition: UACC-62 (Melanoma); format: cell-based, human; conditions: Homo sapiens
A498 = assay: NCI-60 growth inhibition: A498 (Renal Cancer); format: cell-based, human; conditions: Homo sapiens
SK-MEL-2 = assay: NCI-60 growth inhibition: SK-MEL-2 (Melanoma); format: cell-based, human; conditions: Homo sapiens
CAKI-1 = assay: NCI-60 growth inhibition: CAKI-1 (Renal Cancer); format: cell-based, human; conditions: Homo sapiens
OVCAR-4 = assay: NCI-60 growth inhibition: OVCAR-4 (Ovarian Cancer); format: cell-based, human; conditions: Homo sapiens
SW-620 = assay: NCI-60 growth inhibition: SW-620 (Colon Cancer); format: cell-based, human; conditions: Homo sapiens
HT29 = assay: NCI-60 growth inhibition: HT29 (Colon Cancer); format: cell-based, human; conditions: Homo sapiens, HT-29
HOP-92 = assay: NCI-60 growth inhibition: HOP-92 (Non-Small-Cell Lung Cancer); format: cell-based, human; conditions: Homo sapiens
ACHN = assay: NCI-60 growth inhibition: ACHN (Renal Cancer); format: cell-based, human; conditions: Homo sapiens
OVCAR-8 = assay: NCI-60 growth inhibition: OVCAR-8 (Ovarian Cancer); format: cell-based, human; conditions: Homo sapiens
NCI-H23 = assay: NCI-60 growth inhibition: NCI-H23 (Non-Small-Cell Lung Cancer); format: cell-based, human; conditions: Homo sapiens
M14 = assay: NCI-60 growth inhibition: M14 (Melanoma); format: cell-based, human; conditions: Homo sapiens
TK-10 = assay: NCI-60 growth inhibition: TK-10 (Renal Cancer); format: cell-based, human; conditions: Homo sapiens
EKVX = assay: NCI-60 growth inhibition: EKVX (Non-Small-Cell Lung Cancer); format: cell-based, human; conditions: Homo sapiens
HCT-116 = assay: NCI-60 growth inhibition: HCT-116 (Colon Cancer); conditions: Homo sapiens, HCT-116
K-562 = assay: NCI-60 growth inhibition: K-562 (Leukemia); format: cell-based, human; conditions: Homo sapiens, K562
UACC-257 = assay: NCI-60 growth inhibition: UACC-257 (Melanoma); format: cell-based, human; conditions: Homo sapiens
MDA-MB-435 = assay: NCI-60 growth inhibition: MDA-MB-435 (Melanoma); format: cell-based, human; conditions: Homo sapiens
T-47D = assay: NCI-60 growth inhibition: T-47D (Breast Cancer); format: cell-based, human; conditions: Homo sapiens, T47D
NCI-H460 = assay: NCI-60 growth inhibition: NCI-H460 (Non-Small-Cell Lung Cancer); format: cell-based, human; conditions: Homo sapiens
HCT-15 = assay: NCI-60 growth inhibition: HCT-15 (Colon Cancer); format: cell-based, human; conditions: Homo sapiens
NCI-H522 = assay: NCI-60 growth inhibition: NCI-H522 (Non-Small-Cell Lung Cancer); conditions: Homo sapiens, NCI-H522
[2] = Ibuprofen-TDZD analogs (Table 3)

CC(C)Cc1ccc(C(C)C(=O)NCc2ccc(Cn3c(=O)sn(CCI)c3=O)cc2)cc1 (stereo not drawn) [BSK-265]
LD50, 7AAD (μM) 24 h [1, 2]: 2.71 µM | LD50, Alamar blue (μM) 24 h [1, 2]: 2.50 µM | LD50, YOPRO (μM) 24 h [1, 2]: 2.87 µM

C=C1C(=O)O[C@H]2[C@H]1CC/C(COC(=O)NCc1ccc(Cn3c(=O)sn(CCI)c3=O)cc1)=C\CC[C@@]1(C)O[C@@H]21 [BSK-187]
GI50 (RXF 393): 1.61 µM | GI50 (SK-MEL-28): 2.06 µM | GI50 (SNB-19): 6.88 µM | GI50 (SF-268): 2.41 µM | GI50 (RPMI-8226): 1.98 µM | GI50 (IGROV1): 2.08 µM | GI50 (CCRF-CEM): 0.5 µM | GI50 (MDA-MB-468): 1.25 µM | GI50 (786-0): 1.82 µM | GI50 (U251): 4.67 µM | GI50 (SK-MEL-5): 5.37 µM | GI50 (COLO 205): 1.86 µM | GI50 (LOX IMVI): 1.69 µM | GI50 (MOLT-4): 1.35 µM | GI50 (MDA-MB-231/ATCC): 1.77 µM | GI50 (MCF7): 1.71 µM | GI50 (OVCAR-5): 3.28 µM | GI50 (BT-549): 2.4 µM | GI50 (PC-3): 1.75 µM | GI50 (SF-539): 1.72 µM | GI50 (HS 578T): 7.29 µM | LD50, 7AAD (μM) 24 h ([1]; MMB-TDZD analogs (Table 2)): 2.37 µM | LD50, Alamar blue (μM) 24 h ([1]; MMB-TDZD analogs (Table 2)): 1.0 µM | LD50, YOPRO (μM) 24 h ([1]; MMB-TDZD analogs (Table 2)): 1.21 µM | GI50 (DU-145): 1.82 µM | GI50 (MALME-3M): 1.68 µM | GI50 (SN12C): 2.16 µM | GI50 (UO-31): 1.65 µM | GI50 (OVCAR-3): 1.64 µM | GI50 (UACC-62): 1.98 µM | GI50 (A498): 4.44 µM | GI50 (SK-MEL-2): 11.7 µM | GI50 (CAKI-1): 3.79 µM | GI50 (OVCAR-4): 2.02 µM | GI50 (SW-620): 1.66 µM | GI50 (HT29): 2.1 µM | GI50 (HOP-92): 1.38 µM | GI50 (ACHN): 1.89 µM | GI50 (OVCAR-8): 4.55 µM | GI50 (NCI-H23): 3.46 µM | GI50 (M14): 1.82 µM | GI50 (TK-10): 1.91 µM | GI50 (EKVX): 2.11 µM | GI50 (HCT-116): 1.76 µM | GI50 (K-562): 0.65 µM | GI50 (UACC-257): 2.24 µM | GI50 (MDA-MB-435): 2.45 µM | GI50 (T-47D): 1.32 µM | GI50 (NCI-H460): 6.42 µM | GI50 (HCT-15): 1.91 µM | GI50 (NCI-H522): 1.72 µM

COc1ccc(-n2sc(=O)n(Cc3ccc(CNC(=O)C(C)c4ccc(CC(C)C)cc4)cc3)c2=O)cc1 (stereo not drawn) [BSK-270]
LD50, 7AAD (μM) 24 h [1, 2]: 8.21 µM | LD50, Alamar blue (μM) 24 h [1, 2]: 9.00 µM | LD50, YOPRO (μM) 24 h [1, 2]: 6.14 µM

CCCCn1sc(=O)n(Cc2ccc(CNC(=O)C(C)c3ccc(CC(C)C)cc3)cc2)c1=O (stereo not drawn) [BSK-238]
LD50, 7AAD (μM) 24 h [1, 2]: 11.2 µM | LD50, Alamar blue (μM) 24 h [1, 2]: 10.00 µM | LD50, YOPRO (μM) 24 h [1, 2]: 10.9 µM

CC(C)Cc1ccc(C(C)C(=O)NCc2ccc(Cn3c(=O)sn(CCCI)c3=O)cc2)cc1 (stereo not drawn) [BSK-260]
LD50, 7AAD (μM) 24 h [1, 2]: 1.42 µM | LD50, Alamar blue (μM) 24 h [1, 2]: 1.49 µM | LD50, YOPRO (μM) 24 h [1, 2]: 1.48 µM

CC(C)Cc1ccc(C(C)C(=O)NCc2ccc(Cn3c(=O)sn(-c4ccc(C#N)cc4)c3=O)cc2)cc1 (stereo not drawn) [BSK-267]
LD50, 7AAD (μM) 24 h [1, 2]: 14.8 µM | LD50, Alamar blue (μM) 24 h [1, 2]: 12.00 µM | LD50, YOPRO (μM) 24 h [1, 2]: 17.3 µM
